# Test results: patent US9808470B2, “Estrogenic components for use in the treatment of neurological disorders” (UNIVERSITE DE LIEGE, priority 2012, dated 2017)
# Columns and labels:
# [1] = Ex.3 neuroprotective HIE rat model: body weight; assay type: in vivo
# Experimental: (§1) Newborn rat pups were assigned to one of the following 6 groups from postnatal day 4: Sham group (n=24), Vehicle group (n=14), E4 1 mg/kg/per day group (n=11), E4 5 mg/kg/per day group (n=14), E4 10 mg/kg/per day group (n=14), or E4 50 mg/kg/per day group (n=19). From postnatal day 4, rat pups were intraperitoneally injected either vehicle (Vehicle group) or E4 (1, 5, 10, or 50 mg/kg/per day in accordance to the E4 group assignment) or neither vehicle nor E4 (Sham group). At day 7, 30 minutes after last injection, animals were anesthetized with isoflurane (induction, 3.0%; maintenance, 1.5%), and the rat pups from Vehicle and E4 groups passed through surgery encompassing left common carotid artery double ligation and cut. After the procedure, the pups were returned to their dams and were allowed to recover for 1 hour. The pups were then placed in the humidified hypoxic in vivo cabinet (CoyLab, Grass Lake, Mich., USA). Hypoxia was produced by the inhalation of 11%-8% of oxygen balanced by nitrogen at decreased concentration of oxygen for 20 minutes, followed by inhalation of 8% oxygen and 92% nitrogen at constant concentration for 35 minutes. All the manipulations were performed at 37° C. The Sham group went through similar procedures without left common carotid artery ligation followed by hypoxia nor injection. Rat pups recovered with their dams and reared normally until being sacrificed at postnatal day 14.
# To monitor the post-operative well-being of the rat pups due to the performed manipulations and estetrol pre-treatment, the body weight was monitored from postnatal day 7 to day 14 inclusive.
# [2] = system: glial fibrillary acidic protein (GFAP); test: Ex.3 neuroprotective HIE rat model: blood serum GFAP ELISA; assay type: in vivo; settings: 50 mg/kg E4 ip PND4-7 before HI; PND14
# Experimental: Blood was withdrawn, centrifuged and the serum samples were stored at −80° C.
# ELISAs for detecting the brain damage markers S100B protein (Catalog# CSB-E08066r, Cusabio Biotech Co., LTD, China), and glial fibrillary acidic protein (GFAP) (Catalog# E90068Ra, Uscn Life sciences Inc., China) in blood serum samples were performed according to the manufacturers' recommendations.
# as §1, with “Hypoxia was produced by the inhalation of 11%-8% of oxygen balanced by nitrogen at decreased concentration of oxygen for 20 minutes, followed by inhalation of 8% oxygen and 92% nitrogen at constant concentration for 35 minutes. All the manipulations were performed at 37° C. The Sham group went through similar procedures without left common carotid artery ligation followed by hypoxia nor injection. Rat pups recovered with their dams and reared normally until being sacrificed at postnatal day 14.” left out
# [3] = system: intact cells in hippocampus and cortex; test: Ex.8 neuroprotective HIE rat model: intact cell counting; assay type: in vivo
# Experimental: (§2) Newborn rat pups were assigned to one of the following 14 groups from postnatal day 4 (FIG. 23(A)): Sham group (n=12), Vehicle group (n=17), 5 mg/kg/day E4 (n=13), 10 mg/kg/day E4 (n=10), 5 mg/kg/day E4+1.6 mg/kg/day PROG (n=11), 10 mg/kg/day E4+1.6 mg/kg/day PROG (n=11), 5 mg/kg/day E4+16 mg/kg/day PROG (n=11), 10 mg/kg/day E4+16 mg/kg/day PROG (n=11), 5 mg/kg/day E4+136 ng//kg/day E2 (n=11), 10 mg/kg/day E4+136 ng/kg/day E2 (n=11), 5 mg/kg/day E4+1.6 mg/kg/day PROG+136 ng/kg/day (n=13) E2, 10 mg/kg/day E4+1.6 mg/kg/day PROG+136 ng/kg/day E2 (n=16), 5 mg/kg/day E4+16 mg/kg/day PROG+136 ng/kg/day E2 (n=11), 10 mg/kg/day E4+16 mg/kg/day PROG+136 ng/kg/day groups (n=13). Intraperitoneal injections of the pups from study groups were performed from postnatal day 4 to postnatal day 7 inclusively. At day 7, 30 minutes after last injection, animals were anesthetized with isoflurane (induction, 3.0%; maintenance, 1.5%), and the rat pups from vehicle and all the other groups, except the sham group, passed through surgery encompassing left common carotid artery double ligation and cut. After the procedure, the pups were returned to their dams and were allowed to recover for 1 hour. The pups were then placed in the humidified hypoxic in vivo cabinet (CoyLab, Grass Lake, Mich., USA). Hypoxia was produced by the inhalation of 11%-8% of oxygen balanced by nitrogen at decreased concentration of oxygen for 20 minutes, followed by inhalation of 8% oxygen and 92% nitrogen at constant concentration for 35 minutes. All the manipulations were performed at 37° C. The Sham group went through similar procedures without left common carotid artery ligation followed by neither hypoxia nor injection. […]
# Intact cell counting was performed on hematoxylin-eosin-stained sections of the rat pups brains at magnification 400× in 3 fields of the respective brain area. […] The sections were analyzed with the aid of a microscope (Olympus BX51, Olympus, Tokyo, Japan), an image scanner (DotSlide Digital Virtual Microscopy, Olympus, Germany) and ImageJ software (NIH, US). […]
# [4] = system: glial fibrillary acidic protein (GFAP); test: Ex.8 neuroprotective HIE rat model: blood serum GFAP ELISA; assay type: in vivo
# Experimental: as §2, with “USA).” for “USA). Hypoxia was produced by the inhalation of 11%-8% of oxygen balanced by nitrogen at decreased concentration of oxygen for 20 minutes, followed by inhalation of 8% oxygen and 92% nitrogen at constant concentration for 35 minutes. All the manipulations were performed at 37° C. The Sham group went through similar procedures without left common carotid artery ligation followed by neither hypoxia nor injection.”
# [5] = system: cytosolic estrogen receptors; settings: competitive receptor binding, relative to E2; cited from earlier work
compound,measurement,setting,value
"C[C@]12CC[C@@H]3c4ccc(O)cc4CC[C@H]3[C@@H]1[C@@H](O)[C@@H](O)[C@@H]2O [E4, 1,3,5(10)-estratrien-3,15α,16α,17β-tetrol]",body weight,"[1]; 1 mg/kg ip PND4-7 before HI, PND 10, 11 and 12, vs vehicle",significantly higher body weight than the vehicle group
same,body weight,"[1]; 1 mg/kg ip PND4-7 before HI, PND 14, vs vehicle",significantly higher body weight than the vehicle group
same,body weight,"[1]; 5 mg/kg ip PND4-7 before HI, PND 8, 9, 10, 12, vs sham",sham operated animals body weight was significantly higher
same,body weight,"[1]; 5 mg/kg ip PND4-7 before HI, PND 14, vs vehicle",significantly higher body weight than the vehicle group
same,body weight,"[1]; 10 mg/kg ip PND4-7 before HI, PND 9, vs vehicle",significantly higher body weight than the vehicle group
same,body weight,"[1]; 10 mg/kg ip PND4-7 before HI, PND 10, 11 and 12, vs vehicle",significantly higher body weight than the vehicle group
same,body weight,"[1]; 10 mg/kg ip PND4-7 before HI, PND 14, vs vehicle",significantly higher body weight than the vehicle group
same,body weight,"[1]; 50 mg/kg ip PND4-7 before HI, PND 8, 9, 10, 12, vs sham",sham operated animals body weight was significantly higher
same,body weight,"[1]; 50 mg/kg ip PND4-7 before HI, PND 11, 13, 14, vs sham",sham operated animals had significantly higher body weight
same,body weight,"[1]; estetrol pre-treated (1, 5, 10, 50 mg/kg) ip PND4-7 before HI, PND 8 and 13, vs vehicle",significantly higher post-operative body weight than the vehicle pre-treated animals
same,concentration of GFAP in blood serum,[2],300.388 ± 31.232 pg/mL
same,number of intact cells per visual field,"[3]; 5 mg/kg/day E4, SGZ",72.10±5.93
same,number of intact cells per visual field,"[3]; 10 mg/kg/day E4, DG",227.30±14.18
same,number of intact cells per visual field,"[3]; 10 mg/kg/day E4, SGZ",86.10±5.84
same,concentration of GFAP in blood serum,"[4]; 5 mg/kg/day, PND14",6220.49 ± 1763.17 pg/mL
same,concentration of GFAP in blood serum,"[4]; 10 mg/kg/day E4, PND14",12413.45 ± 2243.05 pg·mL
same,values for cytosolic estrogen receptor binding,[5],0.015
